Drawing on PubChem BioAssay AID256 (DTP/NCI, 2004), this text covers T/C for 20 compounds.

Toxic doses and inconclusive results are not listed.

This assay has as its system CD2F1 mice, L1210 leukemia ip, survival T/C. The assay is described as follows: NCI In Vivo Anticancer Drug Screen. Data for tumor model L1210 Leukemia (intraperitoneal) in CD2F1 (CDF1) mice. The note with it: higher = longer survival. In a few lines:
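Activity against a transplanted murine tumor was judged by comparing the compound group with a vehicle group. The outcome in the treated animals was divided by that in the controls.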

The mark [1] stands for this setting: endpoint: mean survival time, dose: 100.0 mg/kg/injection, schedule: Q04DX003 (ip), vehicle: saline.
The mark [2] stands for this setting: endpoint: mean survival time, dose: 100.0 mg/kg/injection, schedule: Q04DX003 (ip), vehicle: saline with Tween-80.
Setting [3] is: endpoint: mean survival time, dose: 200.0 mg/kg/injection, schedule: Q04DX003 (ip), vehicle: saline with Tween-80.
Setting [4] is: endpoint: mean survival time, dose: 400.0 mg/kg/injection, schedule: Q04DX003 (ip), vehicle: saline with Tween-80.
Where [5] appears, read: endpoint: mean survival time, dose: 100.0 mg/kg/injection, schedule: Q01DX009 (ip), vehicle: saline.
Where [6] appears, read: endpoint: mean survival time, dose: 200.0 mg/kg/injection, schedule: Q01DX009 (ip), vehicle: saline.
The mark [7] stands for this setting: endpoint: mean survival time, dose: 400.0 mg/kg/injection, schedule: Q01DX009 (ip), vehicle: saline.

On to `CCOc1ccc2c(c1)c(CC(=O)O)cn2C`, for which the T/C is 98 % of control (endpoint: mean survival time, dose: 100.0 mg/kg/injection, schedule: Q01DX001 (ip), vehicle: other); 101 % of control (endpoint: mean survival time, dose: 200.0 mg/kg/injection, schedule: Q01DX001 (ip), vehicle: other); 98 % of control (endpoint: mean survival time, dose: 400.0 mg/kg/injection, schedule: Q01DX001 (ip), vehicle: other).
Take `CC(C)(O)C(=NCc1ccccc1)c1ccccc1`: the T/C is 102 % of control (endpoint: mean survival time, dose: 100.0 mg/kg/injection, schedule: Q01DX001 (ip), vehicle: saline); 93 % of control (endpoint: mean survival time, dose: 200.0 mg/kg/injection, schedule: Q01DX001 (ip), vehicle: saline); 104 % of control (endpoint: mean survival time, dose: 400.0 mg/kg/injection, schedule: Q01DX001 (ip), vehicle: saline).
Consider `CCOC(=O)c1cc2c3n(c1=O)CCCC3C(c1ccccn1)OC2=O` (configuration not stated), for which the T/C by setting is: under setting [1], 100 % of control; (endpoint: mean survival time, dose: 200.0 mg/kg/injection, schedule: Q04DX003 (ip), vehicle: saline) 107 % of control; (endpoint: mean survival time, dose: 400.0 mg/kg/injection, schedule: Q04DX003 (ip), vehicle: saline) 102 % of control.
Consider `Clc1nc(Oc2ccccc2)nc(-c2cn(-c3ccccc3)c3ccccc23)n1`, for which the T/C is 98 % of control (endpoint: mean survival time, dose: 100.0 mg/kg/injection, schedule: Q01DX001 (ip), vehicle: saline with Tween-80); 95 % of control (endpoint: mean survival time, dose: 100.0 mg/kg/injection, schedule: Q01DX009 (ip), vehicle: saline with Tween-80); 102 % of control under setting [2]; 102 % of control (endpoint: mean survival time, dose: 200.0 mg/kg/injection, schedule: Q01DX001 (ip), vehicle: saline with Tween-80); 101 % of control (endpoint: mean survival time, dose: 200.0 mg/kg/injection, schedule: Q01DX009 (ip), vehicle: saline with Tween-80); 98 % of control under setting [3]. Moreover, the T/C is, setting by setting: (endpoint: mean survival time, dose: 400.0 mg/kg/injection, schedule: Q01DX001 (ip), vehicle: saline with Tween-80) 102 % of control; (endpoint: mean survival time, dose: 400.0 mg/kg/injection, schedule: Q01DX009 (ip), vehicle: saline with Tween-80) 97 % of control; under setting [4], 101 % of control.
As to `CC1=CC(c2ccccc2)=CC(C)(C)C1` (tested in a mixture with another compound), the T/C was 95 % of control (endpoint: mean survival time, dose: 25.0 mg/kg/injection, schedule: Q01DX009 (ip), vehicle: saline sonified); 103 % of control (endpoint: mean survival time, dose: 50.0 mg/kg/injection, schedule: Q01DX009 (ip), vehicle: saline sonified); 103 % of control (endpoint: mean survival time, dose: 100.0 mg/kg/injection, schedule: Q01DX009 (ip), vehicle: saline sonified); 94 % of control under setting [2].
For the compound `Cc1ccc(C(=O)N/N=C/C(=O)O)cc1`, the T/C is 102 % of control (endpoint: mean survival time, dose: 25.0 mg/kg/injection, schedule: Q01DX009 (ip), vehicle: water); 95 % of control (endpoint: mean survival time, dose: 50.0 mg/kg/injection, schedule: Q01DX009 (ip), vehicle: water); 102 % of control (endpoint: mean survival time, dose: 100.0 mg/kg/injection, schedule: Q01DX009 (ip), vehicle: water); 95 % of control (endpoint: mean survival time, dose: 200.0 mg/kg/injection, schedule: Q01DX009 (ip), vehicle: water).
As for `CCCCCCCCCCCCc1ccc(CSC(C(=O)OC)C(SCc2ccc(CCCCCCCCCCCC)cc2)C(=O)OC)cc1` (configuration not stated), the T/C reads like this: under setting [5], 102 % of control; under setting [6], 100 % of control; under setting [7], 104 % of control.
Take `O=C1C=CC(=O)c2c(O)ccc(O)c21`: the T/C (endpoint: mean survival time, dose: 1.0 mg/kg/injection, schedule: Q04DX003 (ip), vehicle: saline with Tween-80) was 91 % of control; the T/C (endpoint: mean survival time, dose: 2.0 mg/kg/injection, schedule: Q04DX003 (ip), vehicle: saline with Tween-80) is 104 % of control; the T/C (endpoint: mean survival time, dose: 4.0 mg/kg/injection, schedule: Q04DX003 (ip), vehicle: saline with Tween-80) is 104 % of control.
Turning to `[NH-]CC[NH-].[NH-]CC[NH-].[NH-]CC[NH-].[Ni+2].[O-][Cl+3]([O-])([O-])O`, the T/C (endpoint: mean survival time, dose: 25.0 mg/kg/injection, schedule: Q04DX002 (ip), vehicle: saline with Tween-80) is 117 % of control and the T/C (endpoint: mean survival time, dose: 50.0 mg/kg/injection, schedule: Q04DX002 (ip), vehicle: saline with Tween-80) is 92 % of control.
Turning to `COC(=O)[C@H]1[C@H]2C[C@@H]3c4[nH]c5cc(OC)ccc5c4CCN3C[C@H]2C[C@@H](OC(=O)/C=C/c2cc(OC)c(OC)c(OC)c2)[C@@H]1OC`, the T/C runs as follows: (endpoint: mean survival time, dose: 0.63 mg/kg/injection, schedule: Q01DX009 (ip), vehicle: saline sonified) 86 % of control; (endpoint: mean survival time, dose: 1.25 mg/kg/injection, schedule: Q01DX009 (ip), vehicle: saline sonified) 96 % of control; (endpoint: mean survival time, dose: 2.5 mg/kg/injection, schedule: Q01DX009 (ip), vehicle: saline sonified) 90 % of control; (endpoint: mean survival time, dose: 5.0 mg/kg/injection, schedule: Q04DX003 (ip), vehicle: saline with Tween-80) 95 % of control; (endpoint: mean survival time, dose: 10.0 mg/kg/injection, schedule: Q04DX003 (ip), vehicle: saline with Tween-80) 101 % of control; (endpoint: mean survival time, dose: 20.0 mg/kg/injection, schedule: Q04DX003 (ip), vehicle: saline with Tween-80) 112 % of control.
Turning to `CCCC(C#N)(CCC)C(=O)OCC`, the T/C runs as follows: (endpoint: mean survival time, dose: 12.5 mg/kg/injection, schedule: Q01DX001 (ip), vehicle: Klucel (hydroxypropylcellulose) (HPC)) 102 % of control; (endpoint: mean survival time, dose: 25.0 mg/kg/injection, schedule: Q01DX001 (ip), vehicle: Klucel (hydroxypropylcellulose) (HPC)) 99 % of control; (endpoint: mean survival time, dose: 50.0 mg/kg/injection, schedule: Q01DX001 (ip), vehicle: Klucel (hydroxypropylcellulose) (HPC)) 99 % of control.
On to `O=C(OC(=O)C(F)(F)C(F)(F)F)C(F)(F)C(F)(F)F`, for which the T/C runs as follows: (endpoint: mean survival time, dose: 100.0 mg/kg/injection, schedule: Q04DX002 (ip), vehicle: saline) 92 % of control; (endpoint: mean survival time, dose: 200.0 mg/kg/injection, schedule: Q04DX002 (ip), vehicle: saline) 103 % of control; (endpoint: mean survival time, dose: 400.0 mg/kg/injection, schedule: Q04DX002 (ip), vehicle: saline) 100 % of control.
As to `CC(=O)NC(CC(=O)O)C(=O)NNC(=O)c1ccccc1O` (configuration not stated), the T/C (endpoint: mean survival time, dose: 25.0 mg/kg/injection, schedule: Q01DX009 (ip), vehicle: Klucel (hydroxypropylcellulose) (HPC)) was 108 % of control; the T/C (endpoint: mean survival time, dose: 50.0 mg/kg/injection, schedule: Q01DX009 (ip), vehicle: Klucel (hydroxypropylcellulose) (HPC)) is 115 % of control; the T/C (endpoint: mean survival time, dose: 100.0 mg/kg/injection, schedule: Q01DX009 (ip), vehicle: Klucel (hydroxypropylcellulose) (HPC)) was 104 % of control.
Consider `Cc1cc(=O)c(C(=O)O)c(C)[nH]1`, for which the T/C is, setting by setting: (endpoint: mean survival time, dose: 100.0 mg/kg/injection, schedule: Q04DX002 (ip), vehicle: saline with Tween-80) 86 % of control; (endpoint: mean survival time, dose: 200.0 mg/kg/injection, schedule: Q04DX002 (ip), vehicle: saline with Tween-80) 86 % of control; (endpoint: mean survival time, dose: 400.0 mg/kg/injection, schedule: Q04DX002 (ip), vehicle: saline with Tween-80) 91 % of control.
`COc1ccc(-n2cnc3c(cnn3C3OC(CO)C(O)C3O)c2=O)cc1` (configuration not stated): the T/C (endpoint: median survival time, dose: 12.5 mg/kg/injection, schedule: Q01DX005 (ip), vehicle: saline) is 105 % of control; the T/C (endpoint: median survival time, dose: 25.0 mg/kg/injection, schedule: Q01DX005 (ip), vehicle: saline) was 102 % of control; the T/C (endpoint: median survival time, dose: 50.0 mg/kg/injection, schedule: Q01DX005 (ip), vehicle: saline) was 102 % of control; the T/C (endpoint: median survival time, dose: 100.0 mg/kg/injection, schedule: Q01DX005 (ip), vehicle: saline) is 105 % of control; the T/C (endpoint: median survival time, dose: 200.0 mg/kg/injection, schedule: Q01DX005 (ip), vehicle: saline) is 106 % of control.
For `O=C(O)c1c(Cl)c(Cl)c(C(=O)O)c(Cl)c1Cl`, the T/C was 96 % of control under setting [2], 96 % of control under setting [3] and 94 % of control under setting [4].
On to `CCOC(=O)C1=C(N)SC(=O)C1`, for which the T/C reads like this: under setting [2], 100 % of control; under setting [3], 104 % of control; under setting [4], 95 % of control.
As to `CN(C)CCCNC1CCC(NCCCN(C)C)CC1` (configuration not stated), the T/C (endpoint: mean survival time, dose: 25.0 mg/kg/injection, schedule: Q01DX009 (ip), vehicle: saline) is 96 % of control and the T/C under setting [1] is 98 % of control.
With `O=C1C(CO)(CO)CCC1(CO)CO`, the T/C under setting [5] was 91 % of control, the T/C under setting [6] is 93 % of control and the T/C under setting [7] was 98 % of control.
Consider `O=C(O)C(=O)O.[NH-]C1CCCCC1C1CCCCC1[NH-].[Pt+2]` (configuration not stated), for which the T/C reads like this: (endpoint: mean survival time, dose: 3.12 mg/kg/injection, schedule: Q04DX003 (ip), vehicle: distilled water + Tween-80) 112 % of control; (endpoint: mean survival time, dose: 6.25 mg/kg/injection, schedule: Q04DX003 (ip), vehicle: distilled water + Tween-80) 119 % of control; (endpoint: mean survival time, dose: 25.0 mg/kg/injection, schedule: Q04DX003 (ip), vehicle: distilled water + Tween-80) 160 % of control; (endpoint: mean survival time, dose: 50.0 mg/kg/injection, schedule: Q04DX003 (ip), vehicle: distilled water + Tween-80) 238 % of control.
